Measurements published in patent publication US20030004154A1, “New crystal forms of oxcarbazepine and processes for their preparation” (priority 2001, published 2003).
Like-named read-outs stand apart in the source and are kept apart here.

Columns and labels:
[1] = test system: voltage sensitive sodium channels; details: in vitro studies; cited from earlier work
[2] = cited from earlier work
[3] = Solid form after storage at ambient temperature, analyzed by PXRD; format: physicochemical; details: stored at ambient temperature (about 20 to 30° C.; gradual, may occur over several months)
Experimental: The present invention also provides a process for transforming Form B to Form C. […] The transformation is gradual and prolonged, and may occur over several months. One skilled in the art may appreciate that the optimal conditions and time for transformation may be discovered through routine experimentation. The characterization of crystalline phases were performed using Phillips PW 1710 Diffractometer. Thermograviometric analysis (TGA) was produced using Mettler TG50 equipped with Mettler TC11 TA processor. Differential Scanning calorimetry (DSC) was performed using Mettler DSC 30 apparatus. FTIR spectra were recorded using Nicolet Avatar 360 spectrometer. Oxcarbazepine Form B was stored at an ambient temperature. The resulting material was analyzed by PXRD and found to be Form C.

[4] = Solid form after heating, analyzed by PXRD; format: physicochemical
Experimental: The present invention also provides for processes that convert one form of oxcarbazepine into another form of oxcarbazepine. Form A may be obtained by heating oxcarbazepine solvate Form E at elevated temperatures between 40° C. and 80° C., preferably 60° C., for a period of 2 hours to 10 hours, preferably 4 hours. One skilled in the art may appreciate that Form E may transform to Form A under different conditions, and that the optimal conditions may be discovered with routine experimentation. The present invention also provides a process for transforming Form B to Form A. At about ambient temperature, Form B transforms to Form C. One skilled in the art would appreciate that such a transition may also occur at temperatures above and below ambient temperature, and that by routine experimentation the boundary of the temperature range may be determined. At higher temperatures, between 60° C. and 120° C., preferably 60° C., a transformation from form B to form A occurs after a few hours, as determined by the temperature. The temperature at which Form B transforms to Form A rather than Form C may be determined by routine experimentation. One skilled in the art may appreciate that the rate and extent of the transformation varies with the conditions and the amount of time under which the transformation occurs. […] FTIR spectra were recorded using Nicolet Avatar 360 spectrometer. […]

[5] = Solid form after slurry in protic solvent, analyzed by PXRD; format: physicochemical
Experimental: One skilled in the art may appreciate that other protic solvents may be used and the optimal conditions may be determined through routine experimentation. The characterization of crystalline phases were performed using Phillips PW 1710 Diffractometer. Thermograviometric analysis (TGA) was produced using Mettler TG50 equipped with Mettler TC11 TA processor. Differential Scanning calorimetry (DSC) was performed using Mettler DSC 30 apparatus. FTIR spectra were recorded using Nicolet Avatar 360 spectrometer. Oxcarbazepine Form B was suspended in ethanol for 24 hours. The product was analyzed by PXRD and determined to be Form A. Oxcarbazepine Form C was suspended in ethanol for 24 hours. The product was analyzed by PXRD and determined to be Form A. Oxcarbazepine Form D was suspended in water for 24 hours. The product is analyzed by PXRD and is determined to be Form A.

Q: For `NC(=O)N1c2ccccc2CC(O)c2ccccc21` (centres unmarked) [10-hydroxy metabolite of oxcarbazepine], which “effect on voltage sensitive sodium channels” value [1] is on record?
A: blocks voltage sensitive sodium channels

Q: For `NC(=O)N1c2ccccc2CC(=O)c2ccccc21` [Oxcarbazepine Form A, 10-oxo-10,11-dihydro-5H-dibenz[b, f]azepine-5-carboxamide], which solubility ([2]; solvents ethanol, ether and water) is on record?
A: practically insoluble

Q: And the solubility ([2]; solvents such as chloroform, dichloromethane, acetone and methanol)?
A: slightly soluble

Q: For `NC(=O)N1c2ccccc2CC(=O)c2ccccc21` [Oxcarbazepine Form B, 10-oxo-10,11-dihydro-5H-dibenz[b, f]azepine-5-carboxamide], which “crystal form found by PXRD after storage (solid-state stability)” value [3] is on record?
A: Form C

Q: What about the “crystal form found by PXRD after heating (solid-state stability)” value ([4]; heated to about 60° C., maintained for five hours) of the same molecule?
A: Form A

Q: And the “crystal form found by PXRD after suspension in solvent (solid-state stability)” value ([5]; suspended in ethanol for 24 hours)?
A: Form A

Q: With `NC(=O)N1c2ccccc2CC(=O)c2ccccc21` [Oxcarbazepine Form D, 10-oxo-10,11-dihydro-5H-dibenz[b, f]azepine-5-carboxamide] as the molecule, how does the “crystal form found by PXRD after suspension in solvent (solid-state stability)” value ([5]; suspended in water for 24 hours) read?
A: Form A

Q: Which “crystal form found by PXRD after heating (solid-state stability)” value ([4]; heated to 60° C., maintained for 4 hours) does the source give for `NC(=O)N1c2ccccc2CC(=O)c2ccccc21` [Oxcarbazepine solvate Form E, 10-oxo-10,11-dihydro-5H-dibenz[b, f]azepine-5-carboxamide] here?
A: Form A
